The target in assay [1] is CDK2 (human) (UniProt P24941). The experiment in a line: Enzyme Assay.
For assay [2], the target named is CDK2 (human) (UniProt P24941). The experiment in a line: Enzyme Assay. The source holds these as a separate data set.

18 compounds from the Kinase Knowledgebase extract (Sharma et al. 2016) can be followed below.

Some results are limits rather than exact numbers.

One may read the Kd as the free concentration of one partner at which half of the binding sites on the other are occupied at equilibrium, for simple one-to-one binding. Regarding `NS(=O)(=O)Cc1cccc(Nc2ncnc(N3CCC[C@@H]3CN3CCCC3)n2)c1`, the Kd on CDK2 (human) [1] was greater than 10000 nM.

For the compound `NS(=O)(=O)Cc1cccc(Nc2ncnc(N3CCCC3c3ccccc3)n2)c1` (configuration not stated), the Kd on CDK2 (human) [2] is greater than 10000 nM.

`NS(=O)(=O)Cc1cccc(Nc2ncnc(N3CCCc4ccccc43)n2)c1` came in with a Kd on CDK2 (human) [1] of 100 to 1000 nM.

At CDK2 (human) [1], `NS(=O)(=O)Cc1cccc(Nc2ncnc(N3CCC[C@@H]3COCc3ccccc3)n2)c1` displayed an equilibrium dissociation constant (Kd) greater than 10000 nM.

The compound `NS(=O)(=O)Cc1cccc(Nc2ncnc(N3CCc4ccccc43)n2)c1` came in with a Kd at CDK2 (human) [1] of 100 to 1000 nM.

In turn, `COC[C@@H]1CCCN1c1ncnc(Nc2cccc(CS(N)(=O)=O)c2)n1` showed a Kd on CDK2 (human) [1] greater than 10000 nM.

Turning to `NS(=O)(=O)Cc1cccc(Nc2ncnc(N3Cc4cn[nH]c4C3)n2)c1`, the Kd at CDK2 (human) [2] is 100 to 1000 nM.

For the compound `NS(=O)(=O)Cc1cccc(Nc2ncnc(N3CCCCC3)n2)c1`, the Kd at CDK2 (human) [2] and at CDK2 (human) [1] was greater than 10000 nM each time.

On to `CN(C)CCC1CCCCN1c1ncnc(Nc2cccc(CS(N)(=O)=O)c2)n1` (configuration not stated), for which the Kd at CDK2 (human) [2] was greater than 10000 nM.

In the case of `NS(=O)(=O)Cc1cccc(Nc2ncnc(N3CCc4nc[nH]c4C3)n2)c1`, the Kd on CDK2 (human) [1] is less than 100 nM.

`NS(=O)(=O)Cc1cccc(Nc2ncnc(N3CCCn4nccc43)n2)c1`: the Kd at CDK2 (human) [2] and at CDK2 (human) [1] was less than 100 nM in each case.

Turning to `NS(=O)(=O)Cc1cccc(Nc2ncnc(N3CCc4ncsc4C3)n2)c1`, the dissociation constant Kd on CDK2 (human) [2] and at CDK2 (human) [1] was less than 100 nM throughout.

On CDK2 (human) [1], `COC[C@H]1CCN1c1ncnc(Nc2cccc(CS(N)(=O)=O)c2)n1` came in with a Kd greater than 10000 nM.

`NS(=O)(=O)Cc1cccc(Nc2ncnc(N3CCc4ncccc4C3)n2)c1`: the Kd at CDK2 (human) [2] and on CDK2 (human) [1] was 100 to 1000 nM throughout.

Consider `NS(=O)(=O)Cc1cccc(Nc2ncnc(N3Cc4ccncc4C3)n2)c1`, for which, at CDK2 (human) [1], the Kd is 100 to 1000 nM.

Regarding `NS(=O)(=O)Cc1cccc(Nc2ncnc(N3CCC[C@H]3CO)n2)c1`, the Kd on CDK2 (human) [1] was greater than 10000 nM.

`NS(=O)(=O)Cc1cccc(Nc2ncnc(N3CCC[C@@H]3CO)n2)c1` returned a Kd at CDK2 (human) [1] greater than 10000 nM.

`COC[C@H]1CCCCN1c1ncnc(Nc2cccc(CS(N)(=O)=O)c2)n1` displayed a Kd at CDK2 (human) [1] greater than 10000 nM.
